Results reported in paper PMC9418147, “Identification and structure-based drug design of cell-active inhibitors of interleukin 17A at a novel C-terminal site” (Scientific Reports, 2022).
Several values for one entry are separate records, joined by “and”; a condition that tells them apart may be missing. Equal values may be shown once. Entries after “also recorded” stand apart in the source; their conditions may differ. Read-outs that look alike come from different tables or passages of the source. Blank lines part the entries; values can stand above or below the molecule they belong to.

Tests used:
[1] = target: T1, IL17A-IL17RA-Fc complex (Homo sapiens, UniProt Q16552); assay: IL17A-IL17RA-Fc AlphaLISA assay; type: biochemical
T1 construct: purchased R&D Systems
T1 sequence (Q16552 24-155, one chain of several): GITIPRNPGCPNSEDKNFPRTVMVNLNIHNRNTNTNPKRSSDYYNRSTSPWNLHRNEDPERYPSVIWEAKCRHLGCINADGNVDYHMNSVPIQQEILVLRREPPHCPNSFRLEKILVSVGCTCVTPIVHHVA
Experimental: (§1) AlphaLISA technology was used to understand the ability of compounds to inhibit IL17A binding to IL17 receptor (IL17RA). Compounds of interest were diluted in 100% DMSO and plated in a 384 well white proxiplate (Perkin Elmer) using Echo Acoustic Liquid Handler (LabCyte Sunnydale, CA). To the compound plate, 4 µL of biotinylated IL17A (R&D systems) and 2 µL of IL17RA-Fc (R&D Systems) was added, to provide a final concentration of 1 nM of IL17RA-Fc and IL17A, respectively. The assay was carried out in 100 mM Tris, 0.01% Tween-20, 0.1% BSA, pH 8.0. The assay mixture was allowed to incubate at room temperature for 60 min, after which, 2 µL of protein A AlphaLISA acceptor beads (#AL101M, PerkinElmer) was added to a final concentration of 7.5 µg/mL for 60 min. To the plate, 2 µL of streptavidin donor beads (#6,760,002, PerkinElmer) was added to a final concentration of 7.5 µg/mL. The plate was allowed to incubate for one hour at room temperature, then loaded into the Envision multimode plate reader (Perkin Elmer). AlphaLISA TruHits Kits (#AL900D, PerkinElmer) were used to assess potential false positives. All inhibition experiments were normalized against DMSO control containing no inhibitor. Example raw data are shown in Supplementary Fig. 10A.

[2] = tested on: IL17A/TNF stimulated HeLa cells carrying an LCN2 promoter-driven luciferase reporter; assay: IL17A/TNF stimulated HeLa-LCN2 luciferase reporter cells; type: cell-based; details: for IC50: Homo sapiens, HeLa LCN2 luciferase reporter, IL17A and TNF, read-out: IL17A/TNF stimulated cell IC50
Experimental: (§2) The promoter of the IL17 target gene lipocalin 2 (LCN2) inserted into pGL4-luciferase vector (pGL4[luc2P/LCN2/Hygro], obtained from Promega) was used to generate a stable clone in HeLa cells (ATCC) using hygromycin. In response to IL17 stimulation the increase in LCN2-luciferase gene transcription can be monitored using the luciferase reporter assay as described below. The reporter cells (HeLa-LCN2) were cultured in Dulbecco's modified Eagle's medium supplemented with 10% (v/v) fetal bovine serum, 0.2 mg/mL hygromycin, and 1% penicillin and streptomycin. Cells were maintained at 37 °C in a humidified atmosphere of 5% CO2. The assay media contained Dulbecco's modified Eagle's medium supplemented with 0.5% Charcoal-stripped FBS and 1% penicillin and streptomycin. About 7500 cells per well were plated in 40 ul assay media in a 384-well black plate (Grenier, #781,090) for 16 h. Then cells were stimulated with IL17A (10 ng/mL) and TNF (20 ng/mL) for 6 h at 37 °C and 5% CO2. The supernatant was removed and 25 µL of One-Glo reagent (#E6110, Promega) was added to the wells and luminescence was measured using Envision multimode plate reader. Background signal was measured using the same protocol by stimulating cells with TNF (20 ng/mL) in the absence of IL17A. All inhibition experiments were normalized against DMSO control containing no inhibitor. Example raw data are shown in Supplementary Fig. 10B.

[3] = target: T2, IL17A (Homo sapiens, UniProt Q16552); assay: Compound binding to IL17A via surface plasmon resonance (SPR); details: for Kd: binding to IL17A
T2 construct: Biotinylated Avi-tag IL17A-(24–155) was produced by enzymatic biotinylation; 6His-MBP (N, cleaved yes); made in house; host or cells: Escherichia coli Shuffle T7 express (NEB)
T2 sequence (Q16552 24-155): as the sequence (Q16552 24-155, one chain of several) above
Experimental: Compounds were assayed via Surface Plasmon Resonance (SPR) using Biacore T200 instrument and Biacore 4000 [Formerly GE Healthcare (now Cytiva Life Sciences)]. […] Sensorgrams were processed (including solvent correction) and analyzed using Biacore T200 and Biacore 4000 evaluation software. The binding curves were fit to determine the equilibrium dissociation constant (KD) and kinetic constants (kon and koff).
Supplemental Figure 2: Measurement for binding of IL17A inhibitors by Surface Plasmon Resonance (SPR).

[4] = target: T3, IL17A (Homo sapiens, UniProt Q16552, C129S); assay: 2D NMR titration of compound binding to IL17A
T3 construct: For crystallography, NMR and early SPR studies, IL17A (34–155)C129S; Trx-6His (N, cleaved yes); made in house; host or cells: Escherichia coli Shuffle T7 express (NEB)
T3 sequence (Q16552 34-155 C129S): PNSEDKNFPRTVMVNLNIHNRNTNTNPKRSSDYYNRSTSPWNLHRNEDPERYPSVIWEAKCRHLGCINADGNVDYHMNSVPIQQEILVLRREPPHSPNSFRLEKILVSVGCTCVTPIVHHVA
Experimental: NMR spectra were acquired on either a Bruker 500 MHz AVANCE III spectrometer or a Bruker 600 MHz AVANCE III HD spectrometer, both with cryoprobes, on 60 µM protein samples in 20 mM deuterated TRIS buffer, pH 8.0, with 150 mM NaCl. For fragment screening, fragments were added from a concentrated DMSO stock to a concentration of 1 mM in the NMR tube. As described above, fragments were initially added as mixtures of 12 and those mixtures which induced significant changes in a 13C-HSQC spectrum of the protein were then deconvoluted to find the individual binders.

[5] = tested on: T4, IL17A-IL17RA interactions; assay: SPR competition assay: IL17A +/- inhibitor over immobilized IL17RA; type: binding; details: IL17A +/- inhibitor injected over immobilized IL17RA
T4 construct: IL17A WT (34–155)C129S and Truncated (34–148)C129S was injected; Trx-6His (N, cleaved yes); made in house; host or cells: Escherichia coli Shuffle T7 express (NEB) for IL17A
Experimental: (§3) To interrogate IL17A—IL17RA binding and the effect of compound binding to IL17A for interaction with IL17RA, Biotinylated Avi tag IL17RA was immobilized using CAP chip. IL17A WT protein with and without compounds was injected over the immobilized IL17RA surface. The surface was regenerated using mixture of 8 M Guanidine Hydrochloride and 1 M Sodium Hydroxide. To profile both IL17A WT and truncated-IL17A binding to IL17RA, Fc tag IL17RA (Sino Biological) was captured on immobilized anti-Fc (Human Fc from Pierce) surface. IL17A WT (34–155)C129S and Truncated (34–148)C129S was injected at flow rate of 80 µL/min for contact time of 180 s and dissociation was monitored for 1200 s. The surface was regenerated with 2 consecutive injections (60 s and 10 s at 60 µL/min) of 10 mM Glycine, pH 1.5.
Supplemental Figure 6: C-terminal binding site compounds can disrupt IL17A binding to its receptor in SPR competition assay. Biotinylated Avi-tagged IL17RA was captured on CAP chip; IL17A +/- inhibitor samples were injected over immobilized IL17RA . Cmpd 1 was used as the positive control. [picture]

[6] = tested on: TNF-only stimulated HeLa reporter cells; assay: TNF-only stimulated HeLa-LCN2 luciferase reporter cells; type: cell-based; details: Homo sapiens, read-out: TNF-only stimulated cell IC50
Experimental: as §2

[7] = AlphaLISA TruHits counter screen for false positives; details: AlphaLISA non-specific effects; read-out: TruHits counterscreen IC50
Experimental: as §1

[8] = target: T2, IL17A; assay: Fluorescence polarization competition assay with FP probe Cmpd 11; type: binding; details: for Competition for IL17A with FP probe: probe Cmpd 11
Experimental: Fluorescence polarization (FP) assays were performed in black shallow 384-well micro plates (ProxiPlate – 384 F Plus, PerkinElmer) using Envision multimode plate reader (Perkin-Elmer). Polarization was measured by using an excitation filter of 485 nm and an emission filter of 535 nm. Each well was flashed 50 times, and the average values were used. Briefly, 5 µL of IL17A (20 nM) diluted in the assay buffer (50 mM Tris pH 8.0, 0.001% Tween) was added to compound containing wells and incubated for 60 min. To this, 5 µL of the FP probe (10 nM) was added and the reaction mixture was incubated for 120 min at room temperature prior to measuring FP. All inhibition experiments were normalized against DMSO control containing no inhibitor.

[9] = target: T2, IL17A; assay: Isothermal titration calorimetry with IL17A dimer; type: binding; details: reverse titration, 50 mM sodium phosphate pH 7.0; read-out: ITC affinity (KD)
Experimental: Supplemental Figure 7: Isothermal titration calorimetry of Cmpd 10. Theoretical binding of 1 molecule to a IL17A dimer would result in N of 0.5. Observed stoichiometry was 0.7. 200 µM IL17A (dimer) used injected (reverse titration) to 20 µM Cmpd 10 in 50 mM sodium phosphate pH 7.0.

[10] = target: T5, IL17RA (Homo sapiens, UniProt Q96F46); assay: SPR of IL17A WT and truncated IL17A binding to IL17RA; details: IL17A construct binding to IL17RA
T5 construct: purchased Sino Biological
Experimental: as §3

[11] = disruption of IL17A-IL17RA-Fc complex formation, read-out: IL17A/IL17RA-Fc AlphaLISA IC50

Potency in biochemical assays ([1]; positive control in biochemical assays): low nM potency
Kd [3]: ~0.004 µM
Binding efficiency index (BEI) ([3]; from SPR KD and molecular weight): 11–13
Molecule: O=C1CC2(CCCC2)CC(=O)NC(Cc2ccc(NC(=O)C(Cc3ccccc3Cl)NC(=O)Cc3cccc(O)c3)cc2)C(=O)NCCOCCOCCN1 (stereo not drawn) [Cmpd 1, reference compound]
Concentration needed to block cellular signaling ([2]; positive control in cellular assays): ~ 3 µM

Kd [3]: > 250 µM
Molecule: C/C=C/c1cccc2c(N)n[nH]c12 [Cmpd 4, (E)-7-(prop-1-en-1-yl)-1H-indazol-3-amine]

Kd [4]: 12 µM
Molecule: c1ccc(CNc2cncc(-c3ccc4[nH]nc(NCCN5CCOCC5)c4c3)c2)cc1 [Cmpd 5, 5-(5-(benzylamino)pyridin-3-yl)-N-(2-morpholinoethyl)-1H-indazol-3-amine]

Kd [3]: ~70 µM and 72 µM
Molecule: Clc1ncc(NCc2ccccc2)cc1-c1cccc2ncccc12 [Cmpd 6, N-benzyl-6-chloro-5-(quinolin-5-yl)pyridin-3-amine]

IC50 [1, 11]: 3.6 µM and ~4 µM
IC50 [6]: ~51 µM
IC50 [2]: 4.7 µM
Kd [3]: 0.37 µM
Competition for IL17A with FP probe [8]: full competition
Molecule: O=C(COc1ccccc1CNc1cc(C(=O)O)cc(-c2ccnc3ccccc23)c1)NCCNC(=O)COc1ccccc1CNc1cc(C(=O)O)cc(-c2ccnc3ccccc23)c1 [Cmpd 8, 5,5'-((((((ethane-1,2-diylbis(azanediyl))bis(2-oxoethane-2,1-diyl))bis(oxy))-bis(2,1-phenylene))bis(methylene))bis(azanediyl))bis(3-(quinolin-4-yl)benzoic acid)]
Disruption of IL17A-IL17RA interactions in SPR-based assay [5]: could block IL17A receptor interactions; also recorded: showed disruption of IL17A-IL17RA interactions
IC50 [7]: ~54 µM

IC50 [1, 11]: 1.3 µM
IC50 [6]: > 70 µM
IC50 [2]: 5.7 µM
Kd [3]: 0.21 µM and 0.209 µM
Competition for IL17A with FP probe [8]: full competition
Molecule: O=C(COc1ccccc1CNc1cc(C(=O)O)cc(-c2ccnc3ccccc23)c1)NCCOCCOc1ccccc1CNc1cc(C(=O)O)cc(-c2ccnc3ccccc23)c1 [Cmpd 9, 3-((2-(2-(2-(2-(2-(((3-carboxy-5-(quinolin-4-yl)phenyl)amino)methyl)-phenoxy)acetamido)ethoxy)ethoxy)-benzyl)amino)-5-(quinolin-4-yl)benzoic acid]
IC50 [7]: ~57 µM

IC50 ([1]; inhibition of IL17A/IL17RA-Fc interactions, read-out: IL17A/IL17RA-Fc IC50): 0.74 µM
IC50 [6]: > 50 µM
Kd [9]: 0.044 µM
IC50 [2]: 1.3 µM
Kd [3]: 0.043 µM and < 0.1 µM
IC50 ([8]; unlabeled compound pre-bound to IL17A before addition of FP probe): 0.107 µM
Molecule: O=C(O)c1cc(NCc2ccccc2OCCOCCOCCOc2ccccc2CNc2cc(C(=O)O)cc(-c3ccnc4ccccc34)c2)cc(-c2ccnc3ccccc23)c1 [Cmpd 10]

Molecule: C-terminal deletion: IL17A construct (aa 34–148) lacking the final C-terminal residues (aa 149–155)
Interaction with IL17RA by SPR [10]: did not productively interact with IL17RA
